The text below walks through data of patent US12529108B2, “Compositions, methods and kits for characterizing and screening for small cell ovarian carcinoma” (THE TRANSLATIONAL GENOMICS RESEARCH INSTITUTE, priority 2014, dated 2026).

In experiment [1] the test system is SMARCA4/A2 negative SCCOHT cell lines BIN67 and SCCOHT1. The experiment is described as follows: High-throughput screen of epigenetic agents, cell viability (CellTiter Glo). It counts as cell-based, human. As to conditions: 3-fold 20-point dilution series, viability 3 days after treatment (FIG. 21). Here is the method: FIG. 21 depicts SCCOHT sensitivity to epigenetic agents. Cells plated at 1,000 cells/well in a 384-well plate were treated with indicated agents using a serial 3-fold 20-point dilution series. Cell viability was measured 3 days after treatment using CellTiter Glo. Surviving cells were measured and normalized to DMSO-treated cells and IC50s calculated by curve-fitting.
Thus, as in MRTs, targeting epigenetic modifications may have therapeutic potential in SCCOHT. To evaluate the activity of a panel of epigenetic drugs in SCCOHT we performed high-throughput screening in the SMARCA4/A2 negative SCCOHT cell lines BIN67 and SCCOHT1. Effects of epigenetic modifiers from all main classes of epigenetic agents—modifiers of acetylated histones as well as inhibitors of DNA methylation, histone methyltransferases and HDACs—are shown in FIG. 21. BIN67 and SCCOHT1 cells are […] sensitive to many of these agents. […] We have found HDAC2 to be overexpressed in most SCCOHTs including these cell lines.
In general terms: ATP-based viability assays read luminescence as a measure of living cells.

The next experiment relates to BIN67. The experiment is described as follows: Pilot compound screen (LOPAC and Prestwick libraries), cell viability (CellTiter Glo). It is filed as cell-based, human. The following applies: 5 μM and 10 μM; viability at 72 hours post-treatment; shared hits from HepG2 counterscreen filtered out. The text has this:
The BIN67 cell line has been characterized for optimal growth conditions, doubling time, cell seeding density, FBS concentration, siRNA transfection conditions (transfection reagent and lipid-to-siRNA ratio to achieve transfection efficiency of 95% or higher), and DMSO tolerance. We have also banked large numbers of BIN67 cells from the same passage to facilitate future screening. Furthermore, we have performed pilot compound and RNAi screens on this cell line.
In BIN67 we screened the LOPAC and Prestwick chemical libraries, diverse libraries of small molecules with good bioavailability and toxicity profiles. These libraries contain 2,400 drugs with subsets of FDA-approved drugs and pharmacologically active compounds. We completed 2 runs in BIN67 with duplicates at concentrations of 5 μM and 10 μM and measured cell viability at 72 hours post-treatment with CellTiter Glo (Promega). The high quality screen was exceeded NIH standards with covariance <5% and Z′-factor 0.83-0.91. […] Notable classes of lead compounds enriched in these hits included 9 cardiac glycosides, 6 tubulin polymerization inhibitors, 2 topoisomerase II inhibitors, and 2 Src/FGFR family kinase inhibitors. In particular, the tubulin inhibitors vincristine and […] are currently used clinically for SCCOHT patients. This serves as a positive confirmation for the robustness and reliability of our screen.

The next experiment has as its system SCCOHT cell lines. The experiment is described as follows: FGFR compounds profiling in a drug dose-dependent manner, cell viability. It is filed as cell-based. As to conditions: Homo sapiens; both SCCOHT cell lines (FIG. 22B). Here is the method:
FIGS. 22A and 22B show the characterization of FGFR and MERTK inhibition in BIN67 cell line. […] Four unique sequences per target were tested; GFP sequence is used as a negative scramble control. Cell viability was measured using CellTiter Glo.
Our finding of FGFRs as synthetic lethal targets, in both our HT-RNAi and compound pilot screens, in SCCOHT is novel. […] As we also identified FGFR inhibitors in our pilot compound screen, we further tested 8 FGFR inhibitors in vitro.

The subject of the next experiment is SMARCA2 protein. The experiment is described as follows: SMARCA2 protein level by Western blotting after HDAC inhibitor treatment. It counts as cell-based, human. As to conditions: BIN67 and SCCOHT1 cells; Western blotting (FIG. 18B). The text has this:
FIGS. 18A-18D depict characterization of SMARCA4/A2 expression in SCCOHT cell lines. […] FIGS. 18C and 18D show Lentivirus-based re-expression of SMARCA4/A2 in BIN67 cells inhibits cell growth.
To understand the roles of these two mutually exclusive ATPases in SCCOHT etiology, we will elucidate the epigenetic consequences of re-expression of one or both SWI/SNF complex ATPases in SCCOHTs.
On the technique in general: Immunoblotting shows a protein as a band on a membrane.

With `C/C=C1\NC(=O)[C@H]2CSSCC/C=C/[C@H](CC(=O)N[C@H](C(C)C)C(=O)N2)OC(=O)[C@H](C(C)C)NC1=O` [Rombidepsin, Romidepsin], in experiment [1], the “sensitivity of SCCOHT cells to epigenetic agents” value is “most sensitive”.

Consider `COc1cc([C@@H]2c3cc4c(cc3[C@@H](O[C@@H]3O[C@@H]5CO[C@@H](C)O[C@H]5[C@H](O)[C@H]3O)[C@H]3COC(=O)[C@H]23)OCO4)cc(OC)c1O` [etoposide], for which, in the experiment on BIN67, the “hypersensitivity (screen hit) of BIN67” value is listed as “hypersensitivity”.

As a reminder, the IC50 is the concentration needed to halve the response being measured. Low values mean inhibition by little substance, high ones a need for much substance. Consider `Cc1ccc(C(=O)Nc2ccc(CN3CCN(C)CC3)c(C(F)(F)F)c2)cc1C#Cc1cnc2cccnn12` [ponatinib], for which the IC50 in the experiment with SCCOHT cell lines was 5 to 333 nM.

With `CC(/C=C/C(=O)NO)=C\[C@@H](C)C(=O)c1ccc(N(C)C)cc1` [trichostatin A], in the experiment on SMARCA2 protein, the “upregulation of SMARCA2 protein” value is “dose-dependent upregulation”.

Take `CC[C@]1(O)C[C@H]2CN(CCc3c([nH]c4ccccc34)[C@@](C(=O)OC)(c3cc4c(cc3OC)N(C=O)[C@H]3[C@@](O)(C(=O)OC)[C@H](OC(C)=O)[C@]5(CC)C=CCN6CC[C@]43[C@@H]65)C2)C1` [vincristine]: the “hypersensitivity (screen hit) of BIN67” value in the experiment with BIN67 is given as “hypersensitivity”.
